# Results published in patent US20100173930A1, “Certain Chemical Entities, Compositions and Methods” (priority 2006, published 2010).
# Test system: SKM MYOFIBRIL
# Assay: SKM myofibril AC1.4 (ATPase, PK/LDH coupled enzyme system); further: unit not given here
# Format: biochemical
# Conditions: screen at pCa=6.5
row,SMILES,SKM MYOFIBRIL AC1.4 (median)
1,"C[C@@H](Nc1c(-c2ccc(O)cc2)nc2ccccn12)C(C)(C)C [4-{3-[((1R)-1,2,2-trimethylpropyl)amino]-4-hydroimidazo[1,2-a]pyridin-2-yl}phenol]",15.0489
2,"C[C@@H](Nc1c(-c2ccc(O)cc2)nc2ccccn12)c1ccccc1 [4-{3-[((1R)-1-phenylethyl)amino]-4-hydroimidazo[1,2-a]pyridin-2-yl}phenol]",28.0451
3,"C[C@H](Nc1c(-c2ccc(O)cc2)nc2ccccn12)C(C)(C)C [4-{3-[((1S)-1,2,2-trimethylpropyl)amino]-4-hydroimidazo[1,2-a]pyridin-2-yl}phenol]",11.8489
4,"C[C@H](Nc1c(-c2ccc(O)cc2)nc2ccccn12)c1ccccc1 [4-{3-[((1S)-1-phenylethyl)amino]-4-hydroimidazo[1,2-a]pyridin-2-yl}phenol]",23.0212
5,"Oc1ccc(-c2nc3ccccn3c2NCc2ccccc2)cc1 [4-{3-[benzylamino]-4-hydroimidazo[1,2-a]pyridin-2-yl}phenol]",27.3665
6,"COc1ccc(-c2nc3ccc(C)cn3c2NC2CCCCC2)cc1O [5-[3-(cyclohexylamino)-6-methyl(4-hydroimidazo[1,2-a]pyridin-2-yl)]-2-methoxyphenol]",6.0251
7,"Cc1ccn2c(NCc3cccc(Cl)c3)c(-c3ccc(Cl)cc3O)nc2c1 [5-chloro-2-(3-{[(3-chlorophenyl)methyl]amino}-7-methyl(4-hydroimidazo[1,2-a]pyridin-2-yl))phenol]",20.0045
8,"CN(C)C(=O)c1ccc2nc(-c3ccccc3O)c(NCc3cccc(Cl)c3)n2c1 [(3-{[(3-chlorophenyl)methyl]amino}-2-(2-hydroxyphenyl)(4-hydroimidazo[1,2-a]pyridin-6-yl))-N,N-dimethylcarboxamide]",16.9244
9,"O=C(NCCO)c1ccc2nc(-c3ccccc3O)c(NCc3cccc(Cl)c3)n2c1 [(3-{[(3-chlorophenyl)methyl]amino}-2-(2-hydroxyphenyl)(4-hydroimidazo[1,2-a]pyridin-6-yl))-N-(2-hydroxyethyl)carboxamide]",1.3334
10,"COCCNC(=O)c1ccc2nc(-c3ccccc3O)c(NCc3cccc(Cl)c3)n2c1 [(3-{[(3-chlorophenyl)methyl]amino}-2-(2-hydroxyphenyl)(4-hydroimidazo[1,2-a]pyridin-6-yl))-N-(2-methoxyethyl)carboxamide]",2.0573
11,"CNC(=O)c1ccc2nc(-c3ccccc3O)c(NCc3cccc(Cl)c3)n2c1 [(3-{[(3-chlorophenyl)methyl]amino}-2-(2-hydroxyphenyl)(4-hydroimidazo[1,2-a]pyridin-6-yl))-N-methylcarboxamide]",1.2348
12,"O=C(NCCO)c1ccc2nc(-c3ccccc3O)c(NCc3ccc(F)cc3)n2c1 [(3-{[(4-fluorophenyl)methyl]amino}-2-(2-hydroxyphenyl)(4-hydroimidazo[1,2-a]pyridin-6-yl))-N-(2-hydroxyethyl)carboxamide]",2.2384
13,"COCCNC(=O)c1ccc2nc(-c3ccccc3O)c(NCc3ccc(F)cc3)n2c1 [(3-{[(4-fluorophenyl)methyl]amino}-2-(2-hydroxyphenyl)(4-hydroimidazo[1,2-a]pyridin-6-yl))-N-(2-methoxyethyl)carboxamide]",4.3059
14,"CNC(=O)c1ccc2nc(-c3ccccc3O)c(NCc3ccc(F)cc3)n2c1 [(3-{[(4-fluorophenyl)methyl]amino}-2-(2-hydroxyphenyl)(4-hydroimidazo[1,2-a]pyridin-6-yl))-N-methylcarboxamide]",1.8401
15,"CN(C)CCNC(=O)c1ccc2nc(-c3ccccc3O)c(NCc3cccc(Cl)c3)n2c1 [N-[2-(dimethylamino)ethyl](3-{[(3-chlorophenyl)methyl]amino}-2-(2-hydroxyphenyl)(4-hydroimidazo[1,2-a]pyridin-6-yl))carboxamide]",2.2231
16,"CN(C)CCNC(=O)c1ccc2nc(-c3ccccc3O)c(NCc3ccc(F)cc3)n2c1 [N-[2-(dimethylamino)ethyl](3-{[(4-fluorophenyl)methyl]amino}-2-(2-hydroxyphenyl)(4-hydroimidazo[1,2-a]pyridin-6-yl))carboxamide]",4.4632
17,"Fc1cccc(-c2nc3ccccn3c2NCc2cccc(Cl)c2)c1 [[(3-chlorophenyl)methyl][2-(3-fluorophenyl)(4-hydroimidazo[1,2-a]pyridin-3-yl)]amine]",43.8606
18,"COc1cccc(-c2nc3ccccn3c2NCc2cccc(Cl)c2)c1 [[(3-chlorophenyl)methyl][2-(3-methoxyphenyl)(4-hydroimidazo[1,2-a]pyridin-3-yl)]amine]",35.6445
19,"Cc1ccc(-c2nc3ccccn3c2NCc2cccc(Cl)c2)cc1 [[(3-chlorophenyl)methyl][2-(4-methylphenyl)(4-hydroimidazo[1,2-a]pyridin-3-yl)]amine]",17.6147
20,"c1csc(-c2nc3ccccn3c2NC2CCCCC2)c1 [cyclohexyl(2-(2-thienyl)(4-hydroimidazo[1,2-a]pyridin-3-yl))amine]",16.7359
21,"Cc1ccn2c(NC3CCCCC3)c(-c3ccoc3)nc2c1 [cyclohexyl(2-(3-furyl)-7-methyl(4-hydroimidazo[1,2-a]pyridin-3-yl))amine]",30.5823
22,"Fc1ccc(-c2nc3ccccn3c2NC2CCCCC2)cc1 [cyclohexyl[2-(4-fluorophenyl)(4-hydroimidazo[1,2-a]pyridin-3-yl)]amine]",9.155
23,"COc1ccc(-c2nc3ccccn3c2NC2CCCCC2)cc1 [cyclohexyl[2-(4-methoxyphenyl)(4-hydroimidazo[1,2-a]pyridin-3-yl)]amine]",16.6703
24,"Cc1ccc(-c2nc3ccccn3c2NC2CCCCC2)cc1 [cyclohexyl[2-(4-methylphenyl)(4-hydroimidazo[1,2-a]pyridin-3-yl)]amine]",25.2334
25,"Cc1ccc(-c2nc3cc(C)ccn3c2NC2CCCC2)cc1 [cyclopentyl[7-methyl-2-(4-methylphenyl)(4-hydroimidazo[1,2-a]pyridin-3-yl)]amine]",4.2349
26,"COC(=O)c1ccc2nc(-c3ccccc3O)c(NCc3cccc(Cl)c3)n2c1 [methyl 3-{[(3-chlorophenyl)methyl]amino}-2-(2-hydroxyphenyl)-4-hydroimidazo[1,2-a]pyridine-6-carboxylate]",2.0174
27,"COC(=O)c1ccn2c(NCc3cccc(Cl)c3)c(-c3ccccc3O)nc2c1 [methyl 3-{[(3-chlorophenyl)methyl]amino}-2-(2-hydroxyphenyl)-4-hydroimidazo[1,2-a]pyridine-7-carboxylate]",5.1088
28,"COC(=O)c1ccc2nc(-c3ccccc3O)c(NCc3ccc(F)cc3)n2c1 [methyl 3-{[(4-fluorophenyl)methyl]amino}-2-(2-hydroxyphenyl)-4-hydroimidazo[1,2-a]pyridine-6-carboxylate]",4.201
